Experimental data reported in ChEMBL document CHEMBL6134792, “Discovery of selective LATS inhibitors via scaffold hopping: enhancing drug-likeness and kinase selectivity for potential applications in regenerative medicine” (RSC Med Chem, 2024).

Test: Clearance in male mouse at 20 mg/kg, po or 5 mg/kg, iv by LC-MS/MS analysis
Type: ADME, organism-based
Conditions: in vivo

CL: 1.7 L/h/kg
SMILES: O=C(/N=c1\sccn1Cc1ccccc1)c1n[nH]c2ncccc12
